For this assay, the target named is T1, rat B1R (bradykinin receptor 1) (Rattus norvegicus, UniProt P97583).
T1 construct: expressed in transfected cells; host or cells: CHO K1 cells
T1 sequence (P97583 1-337): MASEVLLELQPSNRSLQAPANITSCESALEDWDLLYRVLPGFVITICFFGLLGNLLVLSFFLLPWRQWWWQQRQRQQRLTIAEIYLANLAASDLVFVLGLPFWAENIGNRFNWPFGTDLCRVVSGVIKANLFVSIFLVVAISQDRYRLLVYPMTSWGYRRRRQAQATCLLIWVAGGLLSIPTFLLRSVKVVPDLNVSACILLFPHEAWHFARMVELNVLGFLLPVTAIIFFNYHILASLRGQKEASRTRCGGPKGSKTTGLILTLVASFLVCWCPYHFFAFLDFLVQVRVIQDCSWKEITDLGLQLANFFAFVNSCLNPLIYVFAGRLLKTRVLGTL
Kind of assay: FLIPR Ca2+ assay (Fluo-4) on CHO K1 cells stably transfected with the B1R gene of the rat (rB1R cells): % inhibition at 10 μM / IC50, agonist Des-Arg9-bradykinin. It is filed as cell-based. Particulars: CHO-K1, rat B1R. The procedure, abridged: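 Loading with Fluo-4 occurs for 60 min at 37 °C, or alternatively in buffer A, before FLIPR measurement. Compounds are applied, incubated 10–20 min, and then the EC80 agonist is added. Antagonism appears as reduced peak Ca2+ signal relative to maximal inhibition.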

Experimental findings from patent US8455475B2 (Gruenenthal GmbH, priority 2009, dated 2013) are described below.

The structures appear in SMILES notation.

Take `CN(C1CCc2ccc(C(=O)N3CCC4(CC3)CCN(c3ccncc3)CC4)cc21)S(=O)(=O)c1ccc(Br)cc1Cl` (stereo not shown) [IND_CC-405, 4-Bromo-2-chloro-N-methyl-N-[6-(9-pyridin-4-yl-3,9-diazaspiro[5.5]undecane-3-carbonyl)-2,3-dihydro-1H-inden-1-yl]-benzenesulfonic acid amide]: the inhibition at 10 µM was 96%.

For the molecule `O=C(c1ccc2c(c1)C(NS(=O)(=O)Cc1cccc(Cl)c1)CC2)N1CCC2(CC1)CCN(c1ccncc1)C2` (stereo not shown) [IND_CC-353, 1-(3-Chlorophenyl)-N-[6-(2-pyridin-4-yl-2,8-diazaspiro[4.5]decane-8-carbonyl)-2,3-dihydro-1H-inden-1-yl]-methanesulfonic acid amide], the inhibition at 10 µM worked out at 97%.

Consider `O=C(NC1CCc2ccc(C(=O)N3CCC4(CCN(c5ccncc5)CC4)C3)cc21)c1ccc(F)cc1C(F)(F)F` (stereo not shown) [IND_CC-382, 4-Fluoro-N-[6-(8-pyridin-4-yl-2,8-diazaspiro[4.5]decane-2-carbonyl)-2,3-dihydro-1H-inden-1-yl]-2-(trifluoromethyl)-benzamide], for which the inhibition at 10 µM worked out at 103%.

On to `CC1(C)Cc2ccc(C(=O)N3CCC4(CC3)CCN(c3ccncc3)CC4)cc2C1NC(=O)c1cc(Cl)ccc1C(F)(F)F` (stereo not shown) [IND_CC-314, 5-Chloro-N-[2,2-dimethyl-6-(9-pyridin-4-yl-3,9-diazaspiro[5.5]undecane-3-carbonyl)-1,3-dihydro-inden-1-yl]-2-(trifluoromethyl)-benzamide], for which the inhibition at 10 µM was found to be 80%.

Take `N#Cc1ccc(CN2CCC3(CC2)CCN(C(=O)c2ccc4c(c2)C(N(C(=O)c2ccccc2Cl)C2CC2)CC4)C3)cc1` (stereo not shown) [IND_CC-539, 2-Chloro-N-[6-[8-[(4-cyano-phenyl)-methyl]-2,8-diazaspiro[4.5]decane-2-carbonyl]-2,3-dihydro-1H-inden-1-yl]-N-cyclopropyl-benzamide]: the inhibition at 10 µM was 75%.

For the molecule `COc1cc(C)c(S(=O)(=O)NC2CCc3ccc(C(=O)N4CCC5(CCN(c6ccncc6)CC5)C4)cc32)c(C)c1` (stereo not shown) [Ind_CC-087, 4-methoxy-2,6-dimethyl-N-[6-(8-pyridin-4-yl-2,8-diazaspiro[4.5]decane-2-carbonyl)-2,3-dihydro-1H-inden-1-yl]-benzenesulfonic acid amide], the inhibition at 10 µM came to 100%.

As for `Cc1noc(C)c1CN1CCC2(CC1)CCN(C(=O)c1ccc3c(c1)C(NC(=O)c1cccc(Cl)c1Cl)CC3)C2` (stereo not shown) [IND_CC-723, 2,3-Dichloro-N-[6-[8-[(3,5-dimethyl-isoxazol-4-yl)-methyl]-2,8-diazaspiro[4.5]decane-2-carbonyl]-2,3-dihydro-1H-inden-1-yl]-benzamide], the inhibition at 10 µM was 55%.

For the molecule `COc1ccc(CN2CCC3(CC2)CCN(C(=O)c2ccc4c(c2)C(NC(=O)c2cc(C(F)(F)F)ccc2Cl)CC4)CC3)cc1F` (stereo not shown) [IND_CC-648, 2-Chloro-N-[6-[9-[(3-fluoro-4-methoxy-phenyl)-methyl]-3,9-diazaspiro[5.5]-undecane-3-carbonyl]-2,3-dihydro-1H-inden-1-yl]-5-(trifluoromethyl)benzamide], the inhibition at 10 µM came out at 78%.

As for `N#Cc1ccccc1CN1CCC2(CC1)CCN(C(=O)c1ccc3c(c1)C(NC(=O)c1cc(C(F)(F)F)ccc1Cl)CC3)CC2` (stereo not shown) [IND_CC-668, 2-Chloro-N-[6-[9-[(2-cyano-phenyl)-methyl]-3,9-diazaspiro[5.5]undecane-3-carbonyl]-2,3-dihydro-1H-inden-1-yl]-5-(trifluoromethyl)-benzamide], the inhibition at 10 µM amounted to 57%.

Regarding `N#Cc1cccc(NC(=O)N2CCC3(CC2)CCN(C(=O)c2ccc4c(c2)C(N(C(=O)c2ccccc2Cl)C2CC2)CC4)C3)c1` (stereo not shown) [IND_CC-715, 2-[3-[(2-Chloro-benzoyl)-cyclopropyl-amino]-2,3-dihydro-1H-indene-5-carbonyl]-N-(3-cyano-phenyl)-2,8-diazaspiro[4.5]decane-8-carboxylic acid amide], the inhibition at 10 µM worked out at 79%.

As to `O=C(NC1CCc2ccc(C(=O)N3CCC4(CCN(CCCc5cccc(F)c5)CC4)CC3)cc21)c1cc(C(F)(F)F)ccc1Cl` (stereo not shown) [IND_CC-702, 2-Chloro-N-[6-[9-[3-(3-fluorophenyl)-propyl]-3,9-diazaspiro[5.5]undecane-3-carbonyl]-2,3-dihydro-1H-inden-1-yl]-5-(trifluoromethyl)-benzamide], the inhibition at 10 µM was 80%.

For `O=C(c1ccc2c(c1)C(NS(=O)(=O)c1cc(Cl)c(Cl)cc1Cl)CC2)N1CCC2(CC1)CCN(c1ccncc1)C2` (stereo not shown) [IND_CC-363, 2,4,5-Trichloro-N-[6-(2-pyridin-4-yl-2,8-diazaspiro[4.5]decane-8-carbonyl)-2,3-dihydro-1H-inden-1-yl]-benzenesulfonic acid amide], the inhibition at 10 µM was found to be 74%.

Take `O=C(NC1CCc2ccc(C(=O)N3CCC4(CCN(Cc5ccc6ncccc6c5)CC4)C3)cc21)c1cccc(Cl)c1Cl` (stereo not shown) [IND_CC-744, 2,3-Dichloro-N-[6-[8-(quinolin-6-yl-methyl)-2,8-diazaspiro[4.5]decane-2-carbonyl]-2,3-dihydro-1H-inden-1-yl]-benzamide]: the inhibition at 10 µM is 71%.

With `Cc1noc(C)c1CN1CCC2(CC1)CCN(C(=O)c1ccc3c(c1)C(NC(=O)c1ccccc1Cl)CC3)CC2` (stereo not shown) [IND_CC-532, 2-Chloro-N-[6-[9-[(3,5-dimethyl-isoxazol-4-yl)-methyl]-3,9-diazaspiro[5.5]undecane-3-carbonyl]-2,3-dihydro-1H-inden-1-yl]-benzamide], the inhibition at 10 µM is 62%.

In the case of `O=C(NC1CCc2ccc(C(=O)N3CCC4(CCN(Cc5ccc6nccnc6c5)CC4)C3)cc21)c1cc(Cl)ccc1F` (stereo not shown) [IND_CC-672, 5-Chloro-2-fluoro-N-[6-[8-(quinoxalin-6-yl-methyl)-2,8-diazaspiro[4.5]decane-2-carbonyl]-2,3-dihydro-1H-inden-1-yl]-benzamide], the inhibition at 10 µM amounted to 88%.

For `O=C(NC1CCc2ccc(C(=O)N3CCC4(CCN(Cc5cc(F)ccc5F)CC4)C3)cc21)c1cc(C(F)(F)F)ccc1Cl` (stereo not shown) [IND_CC-634, 2-Chloro-N-[6-[8-[(2,5-difluoro-phenyl)-methyl]-2,8-diazaspiro[4.5]decane-2-carbonyl]-2,3-dihydro-1H-inden-1-yl]-5-(trifluoromethyl)-benzamide], the inhibition at 10 µM amounted to 75%.

As for `O=C(c1ccc2c(c1)C(NS(=O)(=O)c1c(Cl)cccc1Cl)CC2)N1CCC2(CC1)CCN(c1ccncc1)CC2` (stereo not shown) [IND_CC-322, 2,6-Dichloro-N-[6-(9-pyridin-4-yl-3,9-diazaspiro[5.5]undecane-3-carbonyl)-2,3-dihydro-1H-inden-1-yl]-benzenesulfonic acid amide], the inhibition at 10 µM worked out at 102%.

On to `CCC(CC)CN1CCC2(CC1)CCN(C(=O)c1ccc3c(c1)C(NC(=O)c1cccc(Cl)c1Cl)CC3)C2` (stereo not shown) [IND_CC-748, 2,3-Dichloro-N-[6-[8-(2-ethyl-butyl)-2,8-diazaspiro[4.5]decane-2-carbonyl]-2,3-dihydro-1H-inden-1-yl]-benzamide], for which the inhibition at 10 µM came out at 70%.

For the molecule `O=C(NC1CCc2ccc(C(=O)N3CCC4(CCN(Cc5ccc(F)cc5F)CC4)C3)cc21)c1cc(C(F)(F)F)ccc1Cl` (stereo not shown) [IND_CC-635, 2-Chloro-N-[6-[8-[(2,4-difluoro-phenyl)-methyl]-2,8-diazaspiro[4.5]decane-2-carbonyl]-2,3-dihydro-1H-inden-1-yl]-5-(trifluoromethyl)-benzamide], the inhibition at 10 µM is 72%.
